Results reported in patent publication US12391679B2, “Benzamide-substituted bicyclic imidazo- and pyrazolo-fused -pyridine, -pyrimide, and -pyridazine compounds for treatment of inflammatory diseases” (ONCO3R Therapeutics BV, priority 2019, dated 2025).

Columns and labels:
[1] = tested on: Balb/c mice, IL-23 injected ear; experiment: Murine model of psoriatic-like epidermal hyperplasia induced by intradermal injections of IL-23; assay type: in vivo; settings: mouse, intradermal IL-23
Description: Mouse recombinant IL-23, carrier free (Cat #14-8231) is provided by e-Bioscience (Frankfurt, Germany).
Balb/c mice (female, 18-20 g body weight) were obtained from Janvier Labs (Le Genest-Saint-Isle, France). Mice are kept on a 12 h light/dark cycle. Temperature was maintained at 22° C., food and water are provided ad libitum.
The design of the study was adapted from Rizzo H L. et al. (Rizzo et al. 2011).
On the first day (D1), the mice were shaved around the two ears. For 4 consecutive days (D1 to D4), the mice received a daily intradermal dose of mouse recombinant IL-23 (1 μg/20 μL in PBS/0.1% BSA) in the right pinna ear and 20 μL of PBS/0.1% BSA in the left pinna ear under anesthesia.
From D1 to D5, mice were dosed with test-compound or with vehicle, 1 h prior IL-23 injection.
The thickness of both ears was measured daily with an automatic caliper. Body weight was assessed at initiation and at sacrifice. On fifth day, 2 h after the last dosing, the mice were sacrificed. The pinnae of the ear were cut, excluding cartilage. The pinnae, placed in a vial containing 1 mL of RNAlater® solution.
There were 8 mice per group. The results were expressed as mean±SEM and statistical analysis was performed using one-way ANOVA followed by Dunnett's post-hoc test versus IL-23 vehicle groups.

[2] = tested on: C57BL/6N mice, bleomycin induced pulmonary fibrosis; experiment: Therapeutic bleomycin induced pulmonary fibrosis 21-day mice model; assay type: in vivo; settings: mouse, bleomycin 21-day; 10 mg/kg p.o. b.i.d. in PEG200/MC 0.5% 20/80 (v/v); meta-analysis of two pooled identical study runs
Description: The aim of the study is to test the efficacy of a test compound at three different doses in a 21-day model of bleomycin induced pulmonary fibrosis in mice.
This study is carried out on C57BL/6N male mice, supplied by Charles River (Calco, Italy), which are acclimatized for at least 5 days in an environment maintained at 22° C., at 55% relative humidity, with 15-20 air changes per hour under light cycles of 12 h. Mice pelleted food and water are provided ad libitum.
The solvent for the test solutions is prepared by adding 0.5 g of hydroxyethylcellulose (Natrosol™) into 500 mL aqua distillate (0.1%) under continuous stirring without heating for 5 h on a magnetic stirrer.
To prepare a solution for intranasal (i.n.) challenge, 0.8 mg/mL stock solutions of bleomycin (Cat #BML-AP302-0010, Enzo Life Sciences, Inc., USA) are thawed and diluted in 330 μL of saline. Prior to i.n. administration, mice are anesthetized i.p.
Finally, test compound solutions are prepared by dissolving the suitable amount of said test compound in PEG 400 or PEG 200 (20% of the final volume) then MC 0.5% (80% of the final volume) to reach final concentrations of 1 mg/mL, 0.3 mg/mL and 0.1 mg/mL, thus yielding compound for a doses of 10 mg/kg, 3 mg/kg and 1 mg/kg. […]
Pulmonary histological changes are assessed using Matsuse modification of Ashcroft score (Ashcroft et al. 1988; Matsuse et al. 1999). […]

`COc1cc(-c2cnc3cc(C(C)(C)C#N)ccn23)cc(OC(F)F)c1C(=O)NC1CC1` [Cpd 19, 4-[7-(1-cyano-1-methyl-ethyl)imidazo[1,2-a]pyridin-3-yl]-N-cyclopropyl-2-(difluoromethoxy)-6-methoxy-benzamide] was tested, and the “ear thickness compared to IL-23 vehicle group” value ([1]; 10 mg/kg p.o. b.i.d.) was “statistically significant decrease”.
In the case of `COc1cc(-c2cnc3cc(C4(C#N)COC4)ccn23)cc(OC(F)F)c1C(=O)NC1CC1` [Cpd 117, 4-[7-(3-cyanooxetan-3-yl)imidazo[1,2-a]pyridin-3-yl]-N-cyclopropyl-2-(difluoromethoxy)-6-methoxy-benzamide], the “ear thickness compared to IL-23 vehicle group” value ([1]; 30 mg/kg p.o. b.i.d.) is reported as “statistically significant decrease”.
With `COc1cc(-c2cnc3cc(C4COC4)ccn23)cc(OC(F)F)c1C(=O)NC1CC1` [Cpd 174, N-cyclopropyl-2-(difluoromethoxy)-6-methoxy-4-[7-(oxetan-3-yl)imidazo[1,2-a]pyridin-3-yl]benzamide] the “ear thickness compared to IL-23 vehicle group” value ([1]; 3 mg/kg p.o. b.i.d.) was “statistically significant decrease”.
With `COc1cc(-c2cnn3cc(C(C)(C)C#N)ccc23)cc(OC(F)F)c1C(=O)N[C@@H]1C[C@@H]1F` [Cpd 219, 4-[6-(1-cyano-1-methyl-ethyl)pyrazolo[1,5-a]pyridin-3-yl]-2-(difluoromethoxy)-N-[(1R,2S)-2-fluorocyclopropyl]-6-methoxy-benzamide] the “Ashcroft score compared to the vehicle group” value [2] was “statistically significant decrease”.
